Laboratory results from ChEMBL document CHEMBL1201862, “PubChem BioAssay data set” (2004).
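Cells were grown in 96-well plates and exposed to each compound for 48 hours at five concentrations; endpoints were interpolated linearly between bracketing concentrations, or set to the highest concentration if not reached. GI50 marks 50% less growth.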 Calls of active or inactive are those of the source. No stated cut-off is given here; in the data, active = GI50 up to about 1.1 µM and inactive = higher.

Columns and labels:
Experiment in all cases: NCI tumour cell line growth inhibition, 48 h
SK-MEL-28 = tested on: SK-MEL-28
TK-10 = tested on: TK-10
OVCAR-8 = tested on: OVCAR-8
HCC 2998 = tested on: HCC 2998
786-0 = tested on: 786-0
M14 = tested on: M14
SN12C = tested on: SN12C
SK-MEL-2 = tested on: SK-MEL-2
SNB-75 = tested on: SNB-75
SNB-19 = tested on: SNB-19
KM12 = tested on: KM12
K562 = tested on: K562
EKVX = tested on: EKVX
COLO 205 = tested on: COLO 205
SNB-78 = tested on: SNB-78
SF-268 = tested on: SF-268
Hs-578T = tested on: Hs-578T
BT-549 = tested on: BT-549
MDA-MB-231 = tested on: MDA-MB-231
DU-145 = tested on: DU-145

Row | SMILES | GI50 (SK-MEL-28) | GI50 (TK-10) | GI50 (OVCAR-8) | GI50 (HCC 2998) | GI50 (786-0) | GI50 (M14) | GI50 (SN12C) | GI50 (SK-MEL-2) | GI50 (SNB-75) | GI50 (SNB-19) | GI50 (KM12) | GI50 (K562) | GI50 (EKVX) | GI50 (COLO 205) | GI50 (SNB-78) | GI50 (SF-268) | GI50 (Hs-578T) | GI50 (BT-549) | GI50 (MDA-MB-231) | GI50 (DU-145)
1 | Oc1cc(-c2ccc3c(c2)OCO3)nc2cc3c(cc12)OCO3 | 37.4 µM (inactive) | 63.8 µM (inactive) | 25.7 µM (inactive) | 31.4 µM (inactive) | 34.9 µM (inactive) | 27.9 µM (inactive) | 39.5 µM (inactive) | 31.1 µM (inactive) | 1.01 µM (active) | 54.3 µM (inactive) | 36.1 µM (inactive) | 28.8 µM (inactive) | > 100 µM (inactive) | 31.5 µM (inactive) | 43 µM (inactive) | – | – | – | – | –
2 | CCC1(O)C(=O)OCc2c1cc1n(c2=O)Cc2c-1nc1ccccc1c2OC (stereo not given) | 0.32 µM (active) | 3.52 µM (inactive) | 0.0194 µM (active) | 0.218 µM (active) | < 0.01 µM (active) | < 0.0176 µM (active) | < 0.01 µM (active) | 2.16 µM (inactive) | < 0.0156 µM (active) | < 0.01 µM (active) | 0.167 µM (active) | < 0.0305 µM (active) | 2.91 µM (inactive) | 0.378 µM (active) | 2.13 µM (inactive) | < 0.01 µM (active) | – | – | – | –
3 | COc1ccc(Cc2n[nH]c(Nc3ccc(Br)cc3)nc2=O)cc1OC | > 89.9 µM (inactive) | > 100 µM (inactive) | > 100 µM (inactive) | > 88.1 µM (inactive) | > 100 µM (inactive) | > 89.7 µM (inactive) | > 100 µM (inactive) | 60.1 µM (inactive) | 28.9 µM (inactive) | > 100 µM (inactive) | 36.6 µM (inactive) | 44.9 µM (inactive) | > 100 µM (inactive) | > 100 µM (inactive) | – | 88.5 µM (inactive) | 35 µM (inactive) | 27 µM (inactive) | 50.1 µM (inactive) | > 100 µM (inactive)
4 | COc1ccc2c(c1)Oc1cc(O)ccc1[C@@H]2c1ccccc1C(=O)NC(C)c1ccccc1 (stereo not given in full) | 15.4 µM (inactive) | 23.7 µM (inactive) | 17.6 µM (inactive) | 11.9 µM (inactive) | 13.7 µM (inactive) | 12.2 µM (inactive) | 14.6 µM (inactive) | 18.7 µM (inactive) | 14.7 µM (inactive) | 15.6 µM (inactive) | 13.4 µM (inactive) | 14.8 µM (inactive) | 13.3 µM (inactive) | 16.4 µM (inactive) | 13.3 µM (inactive) | 19.1 µM (inactive) | – | – | – | –
5 | N#C/C(=C1\SCC(=O)N1c1ccccc1)c1nc2ccccc2[nH]1 | > 100 µM (inactive) | > 100 µM (inactive) | > 100 µM (inactive) | – | > 100 µM (inactive) | > 100 µM (inactive) | > 100 µM (inactive) | > 100 µM (inactive) | > 100 µM (inactive) | > 100 µM (inactive) | – | > 100 µM (inactive) | > 100 µM (inactive) | > 100 µM (inactive) | > 100 µM (inactive) | > 100 µM (inactive) | – | – | – | –
6 | O=C1CC(O)C=C1Nc1ccc(Cl)cc1 (stereo not given) | 56.2 µM (inactive) | > 100 µM (inactive) | 49.2 µM (inactive) | 12.1 µM (inactive) | 58.2 µM (inactive) | 10.3 µM (inactive) | 62.5 µM (inactive) | 29.6 µM (inactive) | 26.5 µM (inactive) | 80.7 µM (inactive) | 13.4 µM (inactive) | 4.4 µM (inactive) | 27.7 µM (inactive) | 9.95 µM (inactive) | 39.6 µM (inactive) | 62.4 µM (inactive) | – | – | – | –
7 | Cc1ccc(NC(=O)CC/C(CC(=O)C(C)(C)C)=N\NC(=O)C[n+]2ccccc2)cc1C | > 100 µM (inactive) | > 100 µM (inactive) | > 100 µM (inactive) | > 100 µM (inactive) | > 100 µM (inactive) | > 100 µM (inactive) | > 100 µM (inactive) | > 100 µM (inactive) | > 100 µM (inactive) | > 100 µM (inactive) | > 100 µM (inactive) | 46.9 µM (inactive) | > 100 µM (inactive) | > 100 µM (inactive) | > 100 µM (inactive) | > 100 µM (inactive) | – | – | – | –
8 | COc1ccc(/N=N/C(=NNC(=O)c2ccc(C)cc2)c2ccc(N(C)C)cc2)cc1 | > 59.7 µM (inactive) | > 100 µM (inactive) | 40.3 µM (inactive) | 35.3 µM (inactive) | 39.1 µM (inactive) | 43.1 µM (inactive) | 56.6 µM (inactive) | 50.8 µM (inactive) | 87.3 µM (inactive) | 61.2 µM (inactive) | 30.1 µM (inactive) | 29.4 µM (inactive) | 37.7 µM (inactive) | 6.84 µM (inactive) | – | > 85.7 µM (inactive) | > 100 µM (inactive) | 27.7 µM (inactive) | 64.4 µM (inactive) | 25.1 µM (inactive)
9 | O=[N+]([O-])c1cnn(C2=CNc3ccccc3N=C2)c1 | > 100 µM (inactive) | > 100 µM (inactive) | > 100 µM (inactive) | > 100 µM (inactive) | > 100 µM (inactive) | – | > 100 µM (inactive) | > 100 µM (inactive) | 43.8 µM (inactive) | > 100 µM (inactive) | – | – | > 100 µM (inactive) | > 100 µM (inactive) | > 100 µM (inactive) | > 100 µM (inactive) | – | – | – | –
10 | COC(=O)C1=C(C[S+]([O-])c2ccc([N+](=O)[O-])cc2[N+](=O)[O-])C2C=CC1C2 (stereo not given) | – | 23.4 µM (inactive) | 30.5 µM (inactive) | 38.4 µM (inactive) | 27.1 µM (inactive) | 42.6 µM (inactive) | 23.7 µM (inactive) | 41.4 µM (inactive) | 25.3 µM (inactive) | > 100 µM (inactive) | 40.3 µM (inactive) | 19 µM (inactive) | 23.6 µM (inactive) | 19.2 µM (inactive) | 48.3 µM (inactive) | 41 µM (inactive) | – | – | – | –
11 | N#CC(C#N)=c1ccc(=C2NCC3CCCN23)cc1 (stereo not given) | – | > 100 µM (inactive) | > 100 µM (inactive) | > 100 µM (inactive) | > 100 µM (inactive) | > 100 µM (inactive) | > 100 µM (inactive) | > 100 µM (inactive) | > 100 µM (inactive) | > 100 µM (inactive) | > 100 µM (inactive) | > 100 µM (inactive) | – | > 100 µM (inactive) | > 100 µM (inactive) | > 100 µM (inactive) | – | – | – | –
12 | Cc1ccc(C2=CC(=O)/C(=C\C(=O)c3ccc(Br)cc3)O2)c(C)c1 | 17.2 µM (inactive) | 3.83 µM (inactive) | 6.58 µM (inactive) | 12.1 µM (inactive) | 8.34 µM (inactive) | 11.6 µM (inactive) | 13.2 µM (inactive) | 49.1 µM (inactive) | 7.85 µM (inactive) | 18.7 µM (inactive) | 20.4 µM (inactive) | 3.4 µM (inactive) | 28.6 µM (inactive) | 3.85 µM (inactive) | – | 16.2 µM (inactive) | 18.1 µM (inactive) | 7.03 µM (inactive) | 9.31 µM (inactive) | 30.4 µM (inactive)
13 | Cc1ccc2nc(Cl)c(/C=N/N3C(=O)/C(=C/Cc4ccco4)N=C3c3ccccc3)cc2c1 | 58.7 µM (inactive) | 18.4 µM (inactive) | 34.4 µM (inactive) | 28.6 µM (inactive) | 20.4 µM (inactive) | 27.7 µM (inactive) | 26.5 µM (inactive) | 56.6 µM (inactive) | > 47.4 µM (inactive) | 35.8 µM (inactive) | 3.33 µM (inactive) | 38.1 µM (inactive) | 30.5 µM (inactive) | 51.5 µM (inactive) | – | 31.3 µM (inactive) | 34.2 µM (inactive) | 29.7 µM (inactive) | 67.8 µM (inactive) | 36.6 µM (inactive)
14 | CC1=NN=C(N)N/C1=C\C(Sc1ccc(Cl)cc1)c1ccc(Cl)cc1Cl (stereo not given) | 21.8 µM (inactive) | 17.5 µM (inactive) | 13.5 µM (inactive) | 4.67 µM (inactive) | 18.5 µM (inactive) | 13.6 µM (inactive) | 24.8 µM (inactive) | 16.4 µM (inactive) | 13.9 µM (inactive) | 12.4 µM (inactive) | 6.41 µM (inactive) | 1.28 µM (inactive) | 13.2 µM (inactive) | 18.9 µM (inactive) | – | 12.6 µM (inactive) | 17.5 µM (inactive) | 20 µM (inactive) | 21.1 µM (inactive) | 19.3 µM (inactive)
15 | CC(=O)NC1=C(Nc2ccc(C)cc2)C(=O)c2ccccc2C1=O | 17.6 µM (inactive) | > 75 µM (inactive) | 25 µM (inactive) | 31.7 µM (inactive) | 15.4 µM (inactive) | 13.5 µM (inactive) | 15.9 µM (inactive) | 21.6 µM (inactive) | 11.6 µM (inactive) | 29.3 µM (inactive) | 24.7 µM (inactive) | 18.2 µM (inactive) | > 75 µM (inactive) | 18.7 µM (inactive) | 44.9 µM (inactive) | 26.9 µM (inactive) | – | – | – | –
16 | c1ccc([P+](CCSCCSCC[P+](c2ccccc2)(c2ccccc2)c2ccccc2)(c2ccccc2)c2ccccc2)cc1 | > 100 µM (inactive) | > 100 µM (inactive) | > 100 µM (inactive) | > 100 µM (inactive) | > 100 µM (inactive) | > 100 µM (inactive) | > 100 µM (inactive) | > 100 µM (inactive) | > 100 µM (inactive) | > 100 µM (inactive) | > 100 µM (inactive) | 53.5 µM (inactive) | > 100 µM (inactive) | > 100 µM (inactive) | – | > 100 µM (inactive) | > 100 µM (inactive) | > 100 µM (inactive) | > 100 µM (inactive) | > 100 µM (inactive)
